Tests used:
[1] = Cytotoxicity against LPS-stimulated mouse BV2 cells assessed as cell viability at 20 uM after 24 hrs by MTT assay relative to control; type: cell-based, BV-2; details: read-out: Activity
BV-2 [2] = assay: Anti-inflammatory activity in mouse BV2 cells assessed as inhibition of LPS-induced nitric oxide production after 24 hrs by griess assay; type: functional, cell-based; details: for IC50: BV-2, 24 h
BV-2 [3] = assay: Anti-inflammatory activity in mouse BV2 cells assessed as inhibition of LPS-induced nitric oxide production pretreated followed by LPS-stimulation by griess assay; type: functional, cell-based
BV-2 [4] = assay: Anti-inflammatory activity in mouse BV2 cells assessed as inhibition of LPS-induced COX2 expression after 24 hrs by Western blot analysis; type: functional, cell-based
BV-2 [5] = assay: Cytotoxicity against LPS-stimulated mouse BV2 cells assessed as reduction in cell viability at <10 uM after 24 hrs by MTT assay; type: cell-based; details: bv-2, 24 h
BV-2 [6] = assay: Anti-inflammatory activity in mouse BV2 cells assessed as inhibition of LPS-induced iNOS expression after 24 hrs by Western blot analysis; type: functional, cell-based

Structure (SMILES)	IC50 (BV-2 [2]) [µM]	viability at 24 h, 20 µM [1] [%]	also measured
C=CCc1ccc(O)c(-c2ccn(-c3ccccc3)n2)c1	73	125	
Oc1ccc(Br)cc1-c1ccn(-c2ccccc2)n1	> 200	109	
C=CCn1ccc(-c2cc(C=C)ccc2O)n1	30.5	105	
C=CCc1ccc(OC)c(-c2cc(COCC(=O)OCC)on2)c1	25.9	126	
CCCCC/C=C/C(=O)CCc1ccc(O)c(OC)c1 [SHOGAOL]			IC50 (BV-2 [3]): 5.59 µM
COc1ccc(Br)cc1-c1cc(CN2CCN(C(=O)OC(C)(C)C)CC2)on1	> 200	100	
COc1ccc(Br)cc1-c1ccn(-c2ccccc2)n1	> 200	124	
C=CCc1ccc(OC)c(-c2cc(CN3CCN(C(=O)OC(C)(C)C)CC3)on2)c1	76.9	117	
C=CCOCc1cc(-c2cc(Br)ccc2OC)no1	90.4	94.6	
C=CCc1ccc(O)c(-c2cc(CO)on2)c1	> 200	126	
CCOC(=O)COCc1cc(-c2cc(Br)ccc2OC)no1	> 200	122	
C=CCc1ccc(OC)c(-c2cc(CN3CCN(CC=C)CC3)on2)c1	111	101	
C=CCc1ccc(OC)c(-c2ccn(CC=C)n2)c1	> 200	109	
C=CCc1ccc(OC)c(-c2cc(CO)on2)c1	> 200	120	
CCCc1ccc(O)c(-c2ccn(CCC)n2)c1	91.3	129	
C=CCn1ccc(-c2cc(Br)ccc2OC)n1	> 200	92.2	
CCCc1ccc(O)c(-c2ccn(Cc3ccccc3)n2)c1	116	126	

Continued, in another order:

IC50 (BV-2 [2]) [µM]	Structure (SMILES)	viability at 24 h, 20 µM [1] [%]	also measured
> 200	COc1ccc(Br)cc1-c1cc(CO)on1	94.1	
> 200	C=CCc1ccc(OC)c(-c2cc(CCC)on2)c1	98.2	
36	C=CCc1ccc(OC)c(-c2ccn(Cc3ccccc3)n2)c1	112	
> 200	COc1ccc(Br)cc1-c1cc(COCc2ccccc2)on1	104	
52.3	C=CCc1ccc(O)c(-c2ccc(OC)c(CC=C)c2)c1 [METHYLHONOKIOL]	115	
> 200	COc1ccc(Br)cc1-c1ccn(Cc2ccccc2)n1	122	
92.5	C=CCc1ccc(O)c(-c2ccn(Cc3ccccc3)n2)c1	99.5	
28.7	C=CCOCc1cc(-c2cc(CC=C)ccc2OC)no1	141	
> 200	C=CCc1ccc(O)c(-c2cc(CCC)on2)c1	93.3	
60.2	CCCc1ccc(O)c(-c2cc[nH]n2)c1	94.7	
> 200	C=CCc1ccc(OC)c(-c2cc(COCc3ccccc3)on2)c1	145	
112	C=CCn1ccc(-c2cc(Br)ccc2O)n1	113	
1.2	C=CCc1ccc(O)c(-c2ccn(CC=C)n2)c1	59.9	inhibition (BV-2 [4]): Dose-dependent effect; Activity (BV-2 [5]): Non-Toxic; inhibition (BV-2 [6]): Dose-dependent effect; inhibition (BV-2 [2]): Dose-dependent effect
109	CCCc1ccc(O)c(-c2ccn(-c3ccccc3)n2)c1	125	
> 200	Oc1ccc(Br)cc1-c1ccn(Cc2ccccc2)n1	107	
> 200	C=CCc1ccc(OC)c(-c2cc(CN3CCN(Cc4ccccc4)CC3)on2)c1	98.6	
> 200	CCCn1ccc(-c2cc(CC)ccc2O)n1	109	
26.6	CNC(=N)NCCC[C@H](N)C(=O)O [TILARGININE]	94.4	
> 200	CCCc1cc(-c2cc(Br)ccc2OC)no1	97.9	
17	C=CCc1ccc(O)c(-c2ccc(O)c(CC=C)c2)c1 [HONOKIOL]	118	
8.92	C=CCc1ccc(OC)c(-c2ccn(-c3ccccc3)n2)c1	68.6	inhibition (BV-2 [4]): Dose-dependent effect; Activity (BV-2 [5]): Non-Toxic; inhibition (BV-2 [6]): Dose-dependent effect; inhibition (BV-2 [2]): Dose-dependent effect
> 200	C=CCc1ccc(OC)c(-c2cc(CN3CCN(CC(=O)OCC)CC3)on2)c1	93.2	
